In PubChem BioAssay AID1508612:

Assay: passive permeability, PAMPA, ADME assay (AID 1508612)
Conditions: pH 7.4, 30.0 min, 50.0 µM

| Structure (SMILES) | Papp [×10⁻⁶ cm/s] |
| --- | --- |
| COc1ccc2[nH]c(C[C@@H]3C[C@@H](C(C)C)[C@H](CNCc4ccccc4O)C=C3C)nc2n1 | > 1000 |
| O=C(Nc1ccc(F)c(C(F)(F)F)c1)Nc1nnc(-c2ccncc2)s1 | 38.5 |
| COc1cccc(C(=O)Nc2nc(-c3nnn(-c4cc(C)ccc4C)c3C)ns2)c1 | 340 |
| OCC(O)CCO/N=C1/C(c2c(O)[nH]c3ccccc23)=Nc2ccccc21 (centres undefined) | 961 |
| O=C(Nc1cccc(OC(F)(F)F)c1)c1cc(-c2ccc[nH]2)n[nH]1 | 26.6 |
| Cc1ccnc(NC(=S)N2CCN(c3ccc(Cl)cc3Cl)CC2)c1 | 868 |
| CCc1ccccc1-n1c(SCC(=O)Nc2ccc(C)cc2)nc2n[nH]c(C)c2c1=N | 95.3 |
| Fc1ccc(Nc2nc(-c3ccncc3F)nc3ccccc23)cc1F | 325 |
| O=C([C@H](Cc1ccc(O[S+](=O)([O-])c2cccc3cnccc23)cc1)N[S+](=O)([O-])c1cccc2cnccc12)N1CCN(Cc2ccccc2)CC1 | 399 |
| COc1ccc(NC(=O)CCCc2nnc3n(CCC(C)C)c(=O)c4sccc4n23)cc1Cl | > 1000 |
| CCOC(=O)c1csc(NC(=O)c2ccncc2NS(=O)(=O)c2ccc(C)cc2)n1 | 114 |
| Cc1ccc2c(c1)N(S(=O)(=O)c1cc(-c3onc(C)c3C)ccc1C)CCO2 | 664 |
| O=C(O)Cn1c(C(=O)Nc2nc(-c3ccccc3Cl)cs2)cc2ccccc21 | 21.5 |
| Cc1sc(NC(=O)Cc2ccc3c(c2)OCO3)nc1-c1ccc2c(c1)CCN2C | < 1 |
| COc1cc(Cl)c(C)cc1NC(=O)CSc1ncc(S(=O)(=O)c2ccc(C(C)(C)C)cc2)c(=O)[nH]1 | 16.2 |
| CC1=C(C(=O)Nc2nc3ccccc3s2)C(c2[nH]ncc2Cl)N=C(Nc2nc3ccccc3o2)N1 (centres undefined) | 6 |
| CCOc1cccc(C(=O)Nc2nc3c(s2)CC(C(C)(C)C)CC3)c1 (centres undefined) | < 1 |
| OC(CCN1CCCCC1)c1ccc(-c2ccccc2)cc1 (centres undefined) | > 1000 |
| CCN1CCN(c2ccc(Nc3ccc(-c4ccc(C(N)=O)cc4)n4ncnc34)cc2)CC1 | 747 |
| CN(C)c1ccc(-c2cc[nH]c(=O)c2N)cc1 | 116 |
| O=S(=O)(Nc1nccs1)c1ccc(NCc2ccccc2O)cc1 | 1.15 |
| COc1cccc(OC)c1C(=O)Nc1ccccc1C(=O)Nc1cccc(C(F)(F)F)c1 | 899 |
| O=C(NCCc1ccccc1)C1CCN(c2nc(-c3ccc(Br)cc3)cs2)CC1 | < 1 |
| COc1cc([C@@H]2c3cc4c(cc3[C@H](O)[C@H]3COC(=O)[C@H]23)OCO4)cc(OC)c1OC | 224 |
| Cc1ccc(S(=O)(=O)Nc2cc(Br)ccc2C(=O)Nc2nc(-c3ccccc3)cs2)cc1 | 7.71 |

| Structure (SMILES) | Papp [×10⁻⁶ cm/s] |
| --- | --- |
| CC(C)Oc1ccc(C(=O)Nc2ccc3c(c2)CCCN3C(=O)c2cccs2)cc1 | 491 |
| Nc1cc(-c2nc(Nc3ccc(F)c(F)c3)c3ccccc3n2)ccn1 | > 1000 |
| Cc1cccc(CN2CCN(c3ccccn3)CC2)c1 | > 1000 |
| C1CCc2nc3c(nc2C1)CCCC3 | 257 |
| Fc1cc(Nc2nc(-c3ccncc3)nc3ccccc23)ccc1OCC(F)(F)F | 58.8 |
| O=C(C1CCN(c2nc(-c3ccc(Br)cc3)cs2)CC1)N1CCOCC1 | 236 |
| CC(C)c1ccc(OCc2nc3c(n2Cc2ccccc2)C(=O)N(CC2CCOCC2)CCN3)cc1 | > 1000 |
| COc1ccc(-c2nc(CS(=O)CC(=O)N3CCC4(CC3)OCCO4)c(C)o2)cc1 (centres undefined) | 91.7 |
| O=C1CCCC2=C1C(c1ccccc1Cl)N=C(Nc1nc3ccccc3o1)N2 (centres undefined) | > 1000 |
| Cc1ccc2oc3c(c(=O)c2c1)C(c1cccc(O)c1)N(CCCN1CCOCC1)C3=O (centres undefined) | 103 |
| Cc1cccc(Nc2nc(NCc3ccco3)c3ccccc3n2)c1 | 730 |
| Nc1nc2c(s1)C(c1ccccc1)CC(=O)N2 (centres undefined) | 19.3 |
| CSc1cc2c(s1)c1cnn(Cc3cccc(N)c3)c(=O)c1n2C | > 1000 |
| NS(=O)(=O)c1ccc(Cc2c(-c3cccc(-c4ccccc4)c3)nn(-c3nc(C(=O)O)cs3)c2CC2CC2)cc1 | 3.4 |
| Fc1ccc(Cl)cc1-c1nc(Nc2ccncc2)c2nccnc2n1 | > 1000 |
| CC(C)Oc1ccc(CNC(=O)C2CCN(C(=O)N3CCOc4ccc(Cl)cc43)CC2)cc1 | 451 |
| O=C(NC1CCCc2c1cnn2-c1ccc(F)cc1F)c1ccccc1 (centres undefined) | > 1000 |
| COc1ccc(-c2nc(-c3c(C)noc3C)cc3c2cc(C)n3CCN(C)C)cc1OC | > 1000 |
| Cc1nc2nc(NC(=O)c3ccc(C(C)(C)C)cc3)[nH]n2c(=O)c1Cl | 8.91 |
| Cc1nc2sccn2c(=O)c1S(=O)(=O)Nc1ccc(N2CCN(S(C)(=O)=O)CC2)cc1 | 209 |
| Cc1cccc(-n2c(C)cc(C=C(C#N)C#N)c2C)c1 | 43 |
| CC1=C(C(=O)Nc2ccc(Cl)cc2)C(c2ccccc2C)n2ncc(C(=O)Nc3ccc(C)cc3)c2N1 (centres undefined) | 10.1 |
| CC(=O)N1CCC(NC(=O)c2nc(-c3ccccc3)cc3[nH]ccc23)CC1 | 288 |
| COc1cc(C(=O)N2CCN(c3cc(Cl)ccc3Cl)CC2)cc(OC)c1OC | > 1000 |
| O=S(=O)(c1ccc(Cl)cc1)c1ccccn1 | 407 |

| Structure (SMILES) | Papp [×10⁻⁶ cm/s] |
| --- | --- |
| CC[C@@](C)(Nc1ccnc(-c2c[nH]c3ncccc23)n1)C(=O)NCC(F)(F)F | 612 |
| COc1cccc(O)c1CNc1ccc(S(=O)(=O)Nc2nccs2)cc1 | 5.16 |
| Cc1ccc(-c2csc(Nc3ccc(S(=O)(=O)Nc4nccs4)cc3)n2)cc1C | 22 |
| CN1C[C@@H]2C[C@H]1CN2c1cc2c(cc1F)c(=O)c(C(=O)O)cn2C1CC1 | < 1 |
| Cc1ccccc1C(=O)N1CCc2cc(-c3nc(NC(=O)c4ccc5c(c4)OCO5)sc3C)ccc21 | 569 |
| Cc1ccccc1S(=O)(=O)N1CCCC(CCC(=O)NCCN(C)C2CCCCC2)C1 (centres undefined) | > 1000 |
| NC(=O)C1CCN(c2nc(-c3ccc(C(F)(F)F)cc3)cs2)CC1 | 292 |
| Cc1ccnc(NC(=S)N2CCN(c3ccc(C(F)(F)F)cc3)CC2)c1 | 587 |
| CCS(=O)(=O)N1CC(CC#N)(n2cc(-c3ncnc4[nH]ccc34)cn2)C1 | 11.1 |
| CS(=O)(=O)Nc1cccc(-c2nccc(-n3ccnc3)n2)c1 | 355 |
| N#Cc1cccc(NC(=O)c2sc3nc4c(cc3c2N)N2CCC4CC2)c1 | 917 |
| O=C(Cc1cccc(OC(F)(F)F)c1)Nc1ccc(CCCCc2nnc(NC(=O)Cc3ccccn3)s2)nn1 | 161 |
| CC(C)c1ccccc1-c1ncc(F)c(NCC2CCN(c3cnccn3)C2)n1 (centres undefined) | > 1000 |
| CC[C@H]1C=CC=CC[C@@H](C)[C@H](O)[C@@](C)(O)C(=O)[C@@H](C)[C@H](O)[C@@H](C)C(=O)[C@@H](C)[C@H](O)[C@@H](C)C=CC(=O)O[C@@H]2[C@@H](C)[C@H](CC1)O[C@]1(CC[C@H](C)[C@H](C[C@@H](C)O)O1)[C@H]2C | < 1 |
| COc1ccc(-c2nc3sc(CCNC(=O)C(C)(C)C)c(C)n3n2)cc1 | 214 |
| CCCCN1CCC[C@H]1CNC(=O)c1cc(C#N)c2ccccc2c1OC | > 1000 |
| O=C1CCCC2=C1C(c1[nH]ncc1Br)N=C(Nc1nc3ccccc3o1)N2 (centres undefined) | 797 |
| O=C1CCc2ccc(OCCCCN3CCN(c4cccc(Cl)c4Cl)CC3)cc2N1 | > 1000 |
| O=C(O)Cc1ccc2oc(-c3ccc(NC(=O)/C=C/c4ccc(Br)cc4)c(F)c3)nc2c1 | 6.63 |
| N#Cc1ccccc1CSc1nc2ncc(Br)cc2[nH]1 | 415 |
| CNc1oc(-c2cccc3ccccc23)nc1C#N | 723 |
| CC(C)(C)c1ccc(C(=O)Nc2ccc3c(c2)CCCN3C(=O)c2cccs2)cc1 | 181 |
| COc1ccc(OC)c(CNc2ncnc3onc(C)c23)c1 | 366 |
| CCCCCn1c(CCCNC(=O)c2ccccc2OC)nc2ccccc21 | > 1000 |
